What all share (assay type): cell-based
The subject of one test is Candida MY 1010. Description: Antifungal inhibitor dilution assay in microtiter format (yeasts). To be noted: MY1010, lowest concentration to prevent growth, read-out: Minimum Inhibitory Concentration. On the procedure: (§1) The compounds are particularly active towards filamentous fungi and yeasts including Candida albicans and Cryptococcus neoformans. The sensitivity of filamentous fungi and yeast is determined using inhibitor dilution assays in microtiter format. The compounds are dissolved in DMSO at 2 mg/ml and serially diluted in 0.1M phosphate buffer, pH 7.0 in the microtiter dish from 100 to 0.006 μg/ml. A standardized spore suspension for testing the filamentous fungi is prepared by inoculating Antibiotic Medium #3 containing 1.5% agar with spores such that 1.5×10^3 colony forming units are added per well. The microtiter wells are filled with 50 μof buffer containing compound and 50 μl of inoculated medium.
(§2) The sensitivity of yeasts is determined by inoculating yeast nitrogen base containing 1% dextrose (YNB/G) with aliquots of an overnight yeast culture grown in Yeast Morphology (YM) media at 35° C. and diluting in YNB/G to yield a final concentration of 1.5-7.5×10^3 colony forming units/well. To test the sensitivity of yeast, compound is solubilized in 10 percent aqueous DMSO at 2.56 mg/ml. The compound is diluted serially in YNB/G from 128 to 0.06 μg/ml and further diluted 1:10 in YNB/G. The wells are filled with 150 μl of media containing drug. The minimum inhibitory concentration (MIC) is defined as the lowest concentration to prevent growth after an incubation for 42 hours, at 28° C. for the filamentous fungi and 24 to 48 hours, at 35° for the yeasts.

The next test has as its system Candida MY 1012. The description is as above. To be noted: MY1012, lowest concentration to prevent growth, read-out: Minimum Inhibitory Concentration. On the procedure: as §1, §2
For another test, the system named is Candida MY 1019. The description is as above. To be noted: MY1019, lowest concentration to prevent growth, read-out: Minimum Inhibitory Concentration. On the procedure:
as §1, §2

For a further test, the system named is Candida MY 1028. The description is as above. To be noted: MY1028, lowest concentration to prevent growth, read-out: Minimum Inhibitory Concentration. As for the experimental part: as §1, §2
The subject of another test is Candida MY 1055. The description is as above. To be noted: MY1055, lowest concentration to prevent growth, read-out: Minimum Inhibitory Concentration. On the procedure:
as §1, §2

For another test, the system named is Candida MY 1750. The test is described as above. The note with it: MY1750, lowest concentration to prevent growth, read-out: Minimum Inhibitory Concentration. As for the experimental part:
as §1, §2

The subject of the next test is Candida MY 2099. The test is described as above. The note with it: MY2099, lowest concentration to prevent growth, read-out: Minimum Inhibitory Concentration. As for the experimental part:
as §1, §2

A further test deals with Cryptococcus MY 1051. The test is described as above. To be noted: MY1051, lowest concentration to prevent growth, read-out: Minimum Inhibitory Concentration. On the procedure: as §1, §2
The test system of a further test is Cryptococcus MY 1146. The description is as above. The note with it: MY1146, lowest concentration to prevent growth, read-out: Minimum Inhibitory Concentration. As for the experimental part:
as §1, §2

The test system of a further test is Cryptococcus MY 2061. The description is as above. To be noted: MY2061, lowest concentration to prevent growth, read-out: Minimum Inhibitory Concentration. As for the experimental part: as §1, §2
A further test relates to Cryptococcus MY 2062. The description is as above. The note with it: MY2062, lowest concentration to prevent growth, read-out: Minimum Inhibitory Concentration. On the procedure:
as §1, §2

Another test concerns Sachromyces MY 1976. The description is as above. The note with it: lowest concentration to prevent growth, read-out: Minimum Inhibitory Concentration. On the procedure:
as §1, §2

A further test relates to Aspergillus MF 0383. Description: Antifungal inhibitor dilution assay in microtiter format (filamentous fungi). The note with it: MF0383, lowest concentration to prevent growth, read-out: Minimum Inhibitory Concentration. On the procedure:
as §1, §2

The subject of a further test is Aspergillus MF 4839. The test is described as above. The note with it: MF4839, lowest concentration to prevent growth, read-out: Minimum Inhibitory Concentration. As for the experimental part: as §1, §2
The next test relates to Aspergillus MF 5668. The test is described as above. The note with it: MF5668, lowest concentration to prevent growth, read-out: Minimum Inhibitory Concentration. On the procedure: as §1, §2
The subject of a further test is Aspergillus MF 5669. The test is described as above. To be noted: MF5669, lowest concentration to prevent growth, read-out: Minimum Inhibitory Concentration. On the procedure:
as §1, §2

Values after ≈ are worked out from the molar mass of the structure shown.

Consider `C=C(CC[C@]12OC[C@@](O)(C(=O)OCOC(=O)C(C)(C)C)[C@](C(=O)O)(O1)[C@H](OC(=O)/C=C/[C@@H](C)C[C@@H](C)CC)[C@H]2O)[C@@H](OC(C)=O)[C@H](C)Cc1ccccc1` [Zaragozic acid A-3-descarboxy-4-methyl pivalate ester], for which the MIC is over 128 µg/mL in the test with Candida MY 1010; 16 µg/mL (≈ 21 µM) in the test on Candida MY 1012; over 128 µg/mL with Candida MY 1019; over 128 µg/mL with Candida MY 1028; over 128 µg/mL in the test on Candida MY 1055; over 128 µg/mL in the test with Candida MY 1750. Moreover, the MIC is over 128 µg/mL in the test on Candida MY 2099; 2 µg/mL (≈ 2.63 µM) in the test with Cryptococcus MY 1051; 8 µg/mL (≈ 10.5 µM) in the test with Cryptococcus MY 1146; 64 µg/mL (≈ 84.1 µM) in the test with Cryptococcus MY 2061; 8 µg/mL (≈ 10.5 µM) with Cryptococcus MY 2062; over 128 µg/mL with Sachromyces MY 1976. The MIC with Aspergillus MF 0383 amounted to 1 µg/mL (≈ 1.31 µM); with Aspergillus MF 4839, 32 µg/mL (≈ 42.1 µM); in the test with Aspergillus MF 5668 it was 32 µg/mL (≈ 42.1 µM); in the test with Aspergillus MF 5669 it was 32 µg/mL (≈ 42.1 µM).
On to `C=C(CC[C@]12OC[C@@](O)(C(=O)O)[C@](C(=O)O)(O1)[C@H](OC(=O)/C=C/[C@@H](C)C[C@@H](C)CC)[C@H]2O)[C@@H](OC(C)=O)[C@H](C)Cc1ccccc1` [Zaragozic Acid A-3-Descarboxy, (1S,4S,5R,6R,7R)-1-[(4S)-acetoxy-3-methylene-(5R)-methyl-6-phenyl]hexyl-4,6,7-trihydroxy-6-O-((4S),(6S)-dimethyl-2-octenoyl)-2,8-dioxabicyclo-[3.2.1]octane-4,5-dicarboxylic acid], for which the MIC in the test on Candida MY 1010 was 64 µg/mL (≈ 99 µM); in the test on Candida MY 1012 it was 16 µg/mL (≈ 24.7 µM); with Candida MY 1019, over 128 µg/mL; in the test on Candida MY 1028, 32 µg/mL (≈ 49.5 µM); in the test with Candida MY 1055 it was 64 µg/mL (≈ 99 µM); in the test with Candida MY 1750 it was 64 µg/mL (≈ 99 µM). Moreover, the MIC in the test with Candida MY 2099 is over 128 µg/mL; in the test with Cryptococcus MY 1051, 0.25 µg/mL (≈ 0.387 µM); in the test with Cryptococcus MY 1146, 2 µg/mL (≈ 3.09 µM); in the test with Cryptococcus MY 2061, 4 µg/mL (≈ 6.18 µM); in the test with Cryptococcus MY 2062 it was 1 µg/mL (≈ 1.55 µM); in the test on Sachromyces MY 1976, over 128 µg/mL. For the same compound, the MIC with Aspergillus MF 0383 was 2 µg/mL (≈ 3.09 µM); with Aspergillus MF 4839, 8 µg/mL (≈ 12.4 µM); with Aspergillus MF 5668 it was 32 µg/mL (≈ 49.5 µM); in the test on Aspergillus MF 5669, 8 µg/mL (≈ 12.4 µM).
